According to patent publication US20210380595A1 (ARAXES PHARMA LLC, priority 2018, published 2021):

Target: T1, KRAS G12C 1-169, his-tagged protein, GDP-loaded (Homo sapiens, UniProt P01116, G12C)
T1 construct: KRAS G12C 1-169, his-tagged protein, GDP-loaded
Experiment: Biochemical assay: covalent modification of KRAS G12C measured by mass spectrometry (RapidFire/TOF or Q-Exactive); further: time not given here
Type: binding
Method in brief: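 GDP-loaded KRAS G12C 1-169 (his-tagged, 2 μM or 0.5 μM in 20 mM Hepes, 150 mM NaCl, 1 mM MgCl2) reacted with compound at 32 μM or 8 μM final, then quenched with formic acid. Intact-protein LC-MS (RapidFire/TOF or Q-Exactive) with charge-envelope deconvolution; % modification from modified vs unmodified peak intensities.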

[1] = tested at a concentration of 8 μM

SMILES: C=CC(=O)N1CC2(CCN(c3ccc(F)c(-c4c(C)ccc5[nH]ncc45)c3C#N)C2)C1C (stereo not drawn) [Compound I-134, 6-(2-acryloyl-1-methyl-2,6-diazaspiro[3.4]octan-6-yl)-3-fluoro-2-(5-methyl-1H-indazol-4-yl)benzonitrile]
- Bind % [1]: ++ (++ indicates binding activity from 50 to 75%)

SMILES: CC#CC(=O)N1CC2(CCCN(c3cc(OCc4ccccn4)cc(-c4c(C)ccc5[nH]ncc45)c3C#N)C2)C1 [Compound I-79, 2-(2-(but-2-ynoyl)-2,6-diazaspiro[3.5]nonan-6-yl)-6-(5-methyl-1H-indazol-4-yl)-4-(pyridin-2-ylmethoxy) benzonitrile]
- Bind % (tested at 32 μM): + (+ indicates binding activity greater than 0% and up to 50%)

SMILES: C=CC(=O)N1CC2(CCN(c3cccc(-c4c(O)cccc4F)c3C#N)C2)C1 [Compound I-17, 3-(2-acryloyl-2,6-diazaspiro[3.4]octan-6-yl)-2′-fluoro-6′-hydroxy-[1,1′-biphenyl]-2-carbonitrile]
- Bind % (tested at 32 μM): + (+ indicates binding activity greater than 0% and up to 50%)

SMILES: C=CC(=O)N1CC2(CCN(c3cc(N4CCC5(CCN(C)C5)C4)cc(-c4c(C)ccc5[nH]ncc45)c3C#N)C2)C1 (stereo not drawn) [Compound I-41, 2-(2-acryloyl-2,6-diazaspiro[3.4]octan-6-yl)-6-(5-methyl-1H-indazol-4-yl)-4-(7-methyl-2,7-diazaspiro[4.4]nonan-2-yl)benzonitrile]
- Bind % (tested at 32 μM): +++ (+++ indicates binding activity greater than 75%)

SMILES: CC#CC(=O)N1CCC2(C1)CN(c1cc(OCc3ccccn3)cc(-c3c(C)ccc4[nH]ncc34)c1C#N)C2 [Compound I-49, 2-(6-(but-2-ynoyl)-2,6-diazaspiro[3.4]octan-2-yl)-6-(5-methyl-1H-indazol-4-yl)-4-(pyridin-2-ylmethoxy) benzonitrile]
- Bind % (tested at 32 μM): + (+ indicates binding activity greater than 0% and up to 50%)

SMILES: C=CC(=O)N1CC2(CCN(c3cccc(-c4c(C)ccc5[nH]ncc45)c3C#N)C2)C1CC (stereo not drawn) [Compound I-137, 2-(2-acryloyl-1-ethyl-2,6-diazaspiro[3.4]octan-6-yl)-6-(5-methyl-1H-indazol-4-yl)benzonitrile]
- Bind % (tested at 32 μM): + (+ indicates binding activity greater than 0% and up to 50%)

SMILES: C=CC(=O)N1CCC2(C1)CN(c1cccc(-c3c(O)cccc3F)c1C#N)C2 [Compound I-10, 3-(6-acryloyl-2,6-diazaspiro[3.4]octan-2-yl)-2′-fluoro-6′-hydroxy-[1,1′-biphenyl]-2-carbonitrile]
- Bind % (tested at 32 μM): + (+ indicates binding activity greater than 0% and up to 50%)

SMILES: C=CC(=O)N1CC2(CCN(c3cccc(-c4c(C)ccc5cnn(C)c45)c3OC)C2)C1 [Compound I-5, 1-(6-(3-(1,6-dimethyl-1H-indazol-7-yl)-2-methoxyphenyl)-2,6-diazaspiro[3.4]octan-2-yl)prop-2-en-1-one]
- Bind % (tested at 32 μM): ++ (++ indicates binding activity from 50 to 75%)

SMILES: Cc1ccc2cnn(C)c2c1-c1c(F)ccc(N2CCC3(CN(C(=O)/C=C/CN(C)C)C3)C2)c1C#N [Compound I-47, (E)-2-(1,6-dimethyl-1H-indazol-7-yl)-6-(2-(4-(dimethylamino)but-2-enoyl)-2,6-diazaspiro[3.4]octan-6-yl)-3-fluorobenzo-nitrile]
- Bind % (tested at 32 μM): + (+ indicates binding activity greater than 0% and up to 50%)

SMILES: C=CC(=O)N1CC2(CCN(c3cc(OC[C@@H]4CCCN4C)c(F)c(-c4c(C)ccc5[nH]ncc45)c3C#N)CC2)C1 [Compound I-128, 6-(2-acryloyl-2,7-diazaspiro[3.5]nonan-7-yl)-3-fluoro-2-(5-methyl-1H-indazol-4-yl)-4-(((S)-1-methylpyrrolidin-2-yl)methoxy) benzonitrile]
- Bind % (tested at 32 μM): + (+ indicates binding activity greater than 0% and up to 50%)

SMILES: C=CC(=O)N1CC2(CCN(c3cc(N4CCOCC4)c(F)c(-c4c(C)ccc5cnn(C)c45)c3C#N)CC2)C1 [Compound I-97, 6-(2-acryloyl-2,7-diazaspiro[3.5]nonan-7-yl)-2-(1,6-dimethyl-1H-indazol-7-yl)-3-fluoro-4-morpholino-benzonitrile]
- Bind % (tested at 32 μM): + (+ indicates binding activity greater than 0% and up to 50%)

SMILES: C=CC(=O)N1CC2(CCN(c3ccc(F)c(-c4c(C)ccc5[nH]ncc45)c3)C2)C1 [Compound I-99]
- Bind % (tested at 32 μM): ++ (++ indicates binding activity from 50 to 75%)

SMILES: C=CC(=O)N1CC2(CCN(c3cccc(-c4c(C)ccc5[nH]ncc45)c3C#N)C2)C1 [Compound I-1, 2-(2-acryloyl-2,6-diazaspiro[3.4]octan-6-yl)-6-(5-methyl-1H-indazol-4-yl)benzonitrile]
- Bind % (tested at 32 μM): +++ (+++ indicates binding activity greater than 75%)

SMILES: C=CC(=O)N1CC2(CCN(c3cc(OCCCN(C)C)c(F)c(-c4c(C)ccc5[nH]ncc45)c3C#N)CC2)C1 [Compound I-113, 6-(2-acryloyl-2,7-diazaspiro[3.5]nonan-7-yl)-4-(3-(dimethylamino)propoxy)-3-fluoro-2-(5-methyl-1H-indazol-4-yl)benzonitrile]
- Bind % [1]: + (+ indicates binding activity greater than 0% and up to 50%)

SMILES: C=CC(=O)N1CC2(CCN(c3cc(N4CCC(N5CCN(C)[C@H](C)C5)CC4)cc(-c4c(C)ccc5[nH]ncc45)c3C#N)C2)C1 [Compound I-38, 2-(2-acryloyl-2,6-diazaspiro[3.4]octan-6-yl)-4-(4-((R)-3,4-dimethyl-piperazin-1-yl)piperidin-1-yl)-6-(5-methyl-1H-indazol-4-yl)benzonitrile]
- Bind % [1]: +++ (+++ indicates binding activity greater than 75%)

SMILES: C=CC(=O)N1CC2(CCN(c3ccc(OC4CCN(C)CC4)c(-c4c(C)ccc5cnn(C)c45)c3C#N)CC2)C1 [Compound I-109, 6-(2-acryloyl-2,7-diazaspiro[3.5]nonan-7-yl)-2-(1,6-dimethyl-1H-indazol-7-yl)-3-((1-methylpiperidin-4-yl)oxy)benzo-nitrile]
- Bind % (tested at 32 μM): + (+ indicates binding activity greater than 0% and up to 50%)

SMILES: C=CC(=O)N1CC2(CCN(c3cccc(-c4c(C)ccc5[nH]nc(N)c45)c3C#N)C2)C1 [Compound I-19, 2-(2-acryloyl-2,6-diazaspiro[3.4]octan-6-yl)-6-(3-amino-5-methyl-1H-indazol-4-yl)benzonitrile]
- Bind % (tested at 32 μM): +++ (+++ indicates binding activity greater than 75%)

SMILES: C=CC(=O)N1CC2(CCN(c3cc(OCc4ccccn4)cc(-c4c(C)ccc5[nH]ncc45)c3C#N)C2)C1CC (stereo not drawn) [Compound I-138]
- Bind % (tested at 32 μM): ++ (++ indicates binding activity from 50 to 75%)

SMILES: C=CC(=O)N1CC2(CCN(c3cc(N4CC(N5CCOCC5)C4)c(F)c(-c4c(C)ccc5[nH]ncc45)c3C#N)CC2)C1 [Compound I-123, 6-(2-acryloyl-2,7-diazaspiro[3.5]nonan-7-yl)-3-fluoro-2-(5-methyl-1H-indazol-4-yl)-4-(3-morpholino-azetidin-1-yl)benzonitrile]
- Bind % (tested at 32 μM): + (+ indicates binding activity greater than 0% and up to 50%)

SMILES: C=CC(=O)N1CCC2(CCN(c3cc(OCc4ccccn4)cc(-c4c(C)ccc5[nH]ncc45)c3C#N)C2)C1 (stereo not drawn) [Compound I-61, 2-(7-acryloyl-2,7-diazaspiro[4.4]nonan-2-yl)-6-(5-methyl-1H-indazol-4-yl)-4-(pyridin-2-ylmethoxy) benzonitrile]
- Bind % (tested at 32 μM): + (+ indicates binding activity greater than 0% and up to 50%)

SMILES: CC#CC(=O)N1CC2(C1)CN(c1cc(OCc3ccccn3)cc(-c3c(C)ccc4[nH]ncc34)c1C#N)C2 [Compound I-73, 2-(6-(but-2-ynoyl)-2,6-diazaspiro[3.3]heptan-2-yl)-6-(5-methyl-1H-indazol-4-yl)-4-(pyridin-2-ylmethoxy) benzonitrile]
- Bind % (tested at 32 μM): + (+ indicates binding activity greater than 0% and up to 50%)

SMILES: C=CC(=O)N1CC2(CCN(c3cc(NCc4ccccn4)c(F)c(-c4c(C)ccc5[nH]ncc45)c3C#N)CC2)C1 [Compound I-117, 6-(2-acryloyl-2,7-diazaspiro[3.5]nonan-7-yl)-3-fluoro-2-(5-methyl-1H-indazol-4-yl)-4-((pyridin-2-ylmethyl)amino) benzonitrile]
- Bind % (tested at 32 μM): ++ (++ indicates binding activity from 50 to 75%)

SMILES: C=CC(=O)N1CC2(CCN(c3cc(OC[C@H]4CCCN4C)c(F)c(-c4c(C)ccc5[nH]ncc45)c3C#N)CC2)C1 [Compound I-127, 6-(2-acryloyl-2,7-diazaspiro[3.5]nonan-7-yl)-3-fluoro-2-(5-methyl-1H-indazol-4-yl)-4-(((R)-1-methylpyrrolidin-2-yl)methoxy) benzonitrile]
- Bind % (tested at 32 μM): ++ (++ indicates binding activity from 50 to 75%)

SMILES: C=CC(=O)N1CC2(CCN(c3cc(OC)c(Cl)c(-c4c(C)ccc5[nH]ncc45)c3C#N)CC2)C1 [Compound I-132, 6-(2-acryloyl-2,7-diazaspiro[3.5]nonan-7-yl)-3-chloro-4-methoxy-2-(5-methyl-1H-indazol-4-yl)benzonitrile]
- Bind % (tested at 32 μM): + (+ indicates binding activity greater than 0% and up to 50%)

SMILES: C=CC(=O)N1CC2(CCN(c3cc(N4CCN(C)C(=O)C4)cc(-c4c(C)ccc5[nH]ncc45)c3C#N)C2)C1 [Compound I-30, 2-(2-acryloyl-2,6-diazaspiro[3.4]octan-6-yl)-6-(5-methyl-1H-indazol-4-yl)-4-(4-methyl-3-oxopiperazin-1-yl)benzonitrile]
- Bind % [1]: ++ (++ indicates binding activity from 50 to 75%)

SMILES: C=CC(=O)N1CC2(CCN(c3cc(N4CCOCC4)cc(-c4c(C)ccc5[nH]ncc45)c3C#N)CC2)C1 [Compound I-108, 2-(2-acryloyl-2,7-diazaspiro[3.5]nonan-7-yl)-6-(5-methyl-1H-indazol-4-yl)-4-morpholino-benzonitrile]
- Bind % (tested at 32 μM): + (+ indicates binding activity greater than 0% and up to 50%)

SMILES: C=CC(=O)N1CC2(CCN(c3ccc(F)c(-c4c(C)ccc5[nH]ncc45)c3Cl)CC2)C1 [Compound I-118, 1-(7-(2-chloro-4-fluoro-3-(5-methyl-1H-indazol-4-yl)phenyl)-2,7-diazaspiro[3.5]nonan-2-yl)prop-2-en-1-one]
- Bind % (tested at 32 μM): + (+ indicates binding activity greater than 0% and up to 50%)
